Measurements: US20240301003A1 (NoNO Inc., priority 2021, published 2024)
Each block holds one compound with its values, some of them ahead of it. Where a SMILES comes first, the peptide text is derived from it. Where no end group is shown, it is not given here. [ ]: non-standard residue; d: D form.

Columns and labels:
PSD95PDZ2 = PSD95PDZ2 (Homo sapiens, UniProt P78352); experiment: Competitive ELISA with biotinylated-NA-1; details: PSD-95 domain 2, FIG. 12
[1] = Pharmacokinetic analysis in rats (subcutaneous, pulmonary instillation, intravenous, intramuscular), HPLC
plasmin [2] = target: T1, plasmin (Homo sapiens, UniProt P00747); experiment: in vitro; details: isolated enzyme plasmin
plasmin [3] = target: T1, plasmin; experiment: Plasmin sensitivity: peptides in PBS challenged with 10 ug/ml plasmin, HPLC; details: 10 ug/mL plasmin, 45 minutes (FIG. 29)
histamine release = experiment: Histamine release in rats, plasma histamine ELISA; details: co-administration of lodoxamide (0.6 mg/kg)
[4] = MTD studies and renal toxicity in rats (creatinine, BUN); details: rats, addition of sodium benzoate (NA-3+SB)
plasmin [5] = experiment: 10 ug/mL plasmin; details: up to 45 minutes
plasmin [6] = experiment: peptides in PBS challenged with 10 ug/ml plasmin; details: 37 C, up to 30 minutes

T1 sequence (P00747 581-810 limits assumed, species assumed): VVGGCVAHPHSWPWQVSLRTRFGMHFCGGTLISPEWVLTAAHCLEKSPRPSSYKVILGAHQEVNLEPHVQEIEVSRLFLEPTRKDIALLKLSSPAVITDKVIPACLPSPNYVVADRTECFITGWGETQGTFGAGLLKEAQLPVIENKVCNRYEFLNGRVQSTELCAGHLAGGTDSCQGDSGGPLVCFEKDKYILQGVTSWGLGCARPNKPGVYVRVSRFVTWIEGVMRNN
T1 sequence (P00747 97-580 partner limits assumed, species assumed): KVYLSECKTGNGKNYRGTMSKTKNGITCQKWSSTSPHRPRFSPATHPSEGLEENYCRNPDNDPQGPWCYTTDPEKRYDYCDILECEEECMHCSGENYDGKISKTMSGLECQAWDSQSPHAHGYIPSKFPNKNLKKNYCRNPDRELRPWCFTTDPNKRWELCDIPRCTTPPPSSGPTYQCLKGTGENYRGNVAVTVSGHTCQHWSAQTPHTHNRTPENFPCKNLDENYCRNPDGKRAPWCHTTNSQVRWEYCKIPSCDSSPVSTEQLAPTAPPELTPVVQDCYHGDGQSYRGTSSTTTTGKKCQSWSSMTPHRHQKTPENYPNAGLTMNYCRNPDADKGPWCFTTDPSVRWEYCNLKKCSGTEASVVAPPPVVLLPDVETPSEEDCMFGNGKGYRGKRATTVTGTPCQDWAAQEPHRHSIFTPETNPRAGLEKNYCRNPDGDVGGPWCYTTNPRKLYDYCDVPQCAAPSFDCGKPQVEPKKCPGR
Chain of PSD95PDZ2 (P78352 160-246 limits assumed): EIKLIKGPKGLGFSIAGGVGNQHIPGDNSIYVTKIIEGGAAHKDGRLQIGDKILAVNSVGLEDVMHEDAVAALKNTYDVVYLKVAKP

Compound: CC[C@@H](C)[C@@H](NC(=O)[C@@H](CO)NC(=O)[C@@H](CO)NC(=O)[C@@H](CC(C)C)NC(=O)[C@@H](CCCCN)NC(=O)[C@@H](CCCNC(=N)N)NC(=O)[C@@H](CCCNC(=N)N)NC(=O)[C@@H](CCCNC(=N)N)NC(=O)[C@@H](CCC(N)=O)NC(=O)[C@@H](CCCNC(=N)N)NC(=O)[C@@H](CCCNC(=N)N)NC(=O)[C@@H](CCCCN)NC(=O)[C@@H](CCCCN)NC(=O)[C@@H](CCCNC(=N)N)NC(=O)CNC(=O)[C@H](N)Cc1ccc(O)cc1)C(=O)N[C@H](CCC(=O)O)C(=O)N[C@H](CO)C(=O)N[C@H](CC(=O)O)C(=O)N[C@@H](C(=O)O)C(C)C [D-NA-1, ygrkkrrqrrrklssiesdv] (HELM PEPTIDE1{[dY].G.[dR].[dK].[dK].[dR].[dR].[dQ].[dR].[dR].[dR].[dK].[dL].[dS].[dS].[dI].[dE].[dS].[dD].[dV]}$$$$V2.0)
EC50 (compared between peptides) (PSD95PDZ2): about ten-fold lower
plasma concentration and plasma exposure relative to intrapulmonary NA-1 ([1]; pulmonary instillation): higher plasma concentration and a greater plasma exposure
AUC compared with subcutaneous NA-1 ([1]; subcutaneous 25 mg/kg): increased Cmax and AUC relative to subcutaneous NA-1 but not to the same extent
Cmax compared with subcutaneous NA-1 ([1]; subcutaneous 25 mg/kg): increased Cmax and AUC relative to subcutaneous NA-1 but not to the same extent

remaining at 0.5 h, 65 ug/ml (plasmin [2]): ~100%
Compound: CC[C@H](C)[C@H](NC(=O)[C@H](CO)NC(=O)[C@H](CO)NC(=O)[C@H](CC(C)C)NC(=O)[C@H](CCCCN)NC(=O)[C@@H](CCCNC(=N)N)NC(=O)[C@H](CCCNC(=N)N)NC(=O)[C@H](CCCNC(=N)N)NC(=O)[C@H](CCC(N)=O)NC(=O)[C@@H](CCCNC(=N)N)NC(=O)[C@H](CCCNC(=N)N)NC(=O)[C@H](CCCCN)NC(=O)[C@H](CCCCN)NC(=O)[C@@H](CCCNC(=N)N)NC(=O)CNC(=O)[C@@H](N)Cc1ccc(O)cc1)C(=O)N[C@@H](CCC(=O)O)C(=O)N[C@@H](CO)C(=O)N[C@@H](CC(=O)O)C(=O)N[C@H](C(=O)O)C(C)C [NA-4.4.1] (HELM PEPTIDE1{Y.G.[dR].K.K.R.[dR].Q.R.R.[dR].K.L.S.S.I.E.S.D.V}$$$$V2.0; N-terminus and C-terminus assumed)

remaining at 0.5 h, 65 ug/ml (plasmin [2]): ~100%
Compound: CC[C@H](C)[C@H](NC(=O)[C@H](CO)NC(=O)[C@H](CO)NC(=O)[C@H](CC(C)C)NC(=O)[C@H](CCCCN)NC(=O)[C@@H](CCCNC(=N)N)NC(=O)[C@H](CCCNC(=N)N)NC(=O)[C@H](CCCNC(=N)N)NC(=O)[C@@H](CCC(N)=O)NC(=O)[C@H](CCCNC(=N)N)NC(=O)[C@H](CCCNC(=N)N)NC(=O)[C@@H](CCCCN)NC(=O)[C@H](CCCCN)NC(=O)[C@H](CCCNC(=N)N)NC(=O)CNC(=O)[C@@H](N)Cc1ccc(O)cc1)C(=O)N[C@@H](CCC(=O)O)C(=O)N[C@@H](CO)C(=O)N[C@@H](CC(=O)O)C(=O)N[C@H](C(=O)O)C(C)C [NA-411.4] (HELM PEPTIDE1{Y.G.R.K.[dK].R.R.[dQ].R.R.[dR].K.L.S.S.I.E.S.D.V}$$$$V2.0; N-terminus and C-terminus assumed)

Compound: CC[C@H](C)[C@H](NC(=O)[C@@H](CCCNC(=N)N)NC(=O)[C@H](CCCNC(=N)N)NC(=O)[C@@H](CCCNC(=N)N)NC(=O)[C@H](CCC(N)=O)NC(=O)[C@@H](CCCNC(=N)N)NC(=O)[C@@H](CCCNC(=N)N)NC(=O)[C@@H](CCCCN)NC(=O)[C@@H](CCCCN)NC(=O)[C@@H](N)CCCNC(=N)N)C(=O)N[C@@H](CCC(=O)O)C(=O)N[C@@H](CO)C(=O)N[C@@H](CC(=O)O)C(=O)N[C@H](C(=O)O)C(C)C [NoNO 411, RkkrrQrRrIESDV] (HELM PEPTIDE1{R.[dK].[dK].[dR].[dR].Q.[dR].R.[dR].I.E.S.D.V}$$$$V2.0; N-terminus and C-terminus assumed)
plasmin resistance (plasmin [3]): resistance to plasmin

Compound: CC[C@H](C)[C@H](NC(=O)[C@H](CCCNC(=N)N)NC(=O)[C@@H](CCCNC(=N)N)NC(=O)[C@@H](CCCNC(=N)N)NC(=O)[C@H](CCC(N)=O)NC(=O)[C@@H](CCCNC(=N)N)NC(=O)[C@H](CCCNC(=N)N)NC(=O)[C@@H](CCCCN)NC(=O)[C@H](CCCCN)NC(=O)[C@@H](N)CCCNC(=N)N)C(=O)N[C@@H](CCC(=O)O)C(=O)N[C@@H](CO)C(=O)N[C@@H](CC(=O)O)C(=O)N[C@H](C(=O)O)C(C)C [NoNO 414, RKkRrQrrRIESDV] (HELM PEPTIDE1{R.K.[dK].R.[dR].Q.[dR].[dR].R.I.E.S.D.V}$$$$V2.0)
plasmin resistance (plasmin [3]): resistance to plasmin

Compound: CC[C@H](C)[C@H](NC(=O)[C@H](CCCNC(=N)N)NC(=O)[C@H](CCCNC(=N)N)NC(=O)[C@@H](CCCNC(=N)N)NC(=O)[C@H](CCC(N)=O)NC(=O)[C@@H](CCCNC(=N)N)NC(=O)[C@H](CCCNC(=N)N)NC(=O)[C@H](CCCCN)NC(=O)[C@H](CCCCN)NC(=O)[C@H](N)CCCNC(=N)N)C(=O)N[C@@H](CCC(=O)O)C(=O)N[C@@H](CO)C(=O)N[C@@H](CC(=O)O)C(=O)N[C@H](C(=O)O)C(C)C [NoNO 415, rKKRrQrRRIESDV] (HELM PEPTIDE1{[dR].K.K.R.[dR].Q.[dR].R.R.I.E.S.D.V}$$$$V2.0)
plasmin resistance (plasmin [3]): resistance to plasmin

Compound: N#Cc1cc(NC(=O)C(=O)O)c(Cl)c(NC(=O)C(=O)O)c1 [lodoxamide, 2-[2-chloro-5-cyano-3-(oxaloamino)anilino]-2-oxoacetic acid, reference compound]
effect on histamine induced by D-Tat-L-2B9C at 7.6 mg/kg IV (histamine release): abrogated

Compound: O=C([O-])c1ccccc1.[Na+] [sodium benzoate, reference compound]
effect on creatinine and BUN levels induced by 25 mg/kg NA-3 [4]: reduces the creatinine and BUN levels

not cleaved (plasmin [5]): no degradation observed in 45 minutes
Compound: RKkRrQrrRIESDV

Compound: RkkrrQrRrIESDV (HELM PEPTIDE1{R.[dK].[dK].[dR].[dR].Q.[dR].R.[dR].I.E.S.D.V}$$$$V2.0; N-terminus and C-terminus assumed; SMILES CC[C@H](C)[C@H](NC(=O)[C@@H](CCCNC(=N)N)NC(=O)[C@H](CCCNC(=N)N)NC(=O)[C@@H](CCCNC(=N)N)NC(=O)[C@H](CCC(N)=O)NC(=O)[C@@H](CCCNC(=N)N)NC(=O)[C@@H](CCCNC(=N)N)NC(=O)[C@@H](CCCCN)NC(=O)[C@@H](CCCCN)NC(=O)[C@@H](N)CCCNC(=N)N)C(=O)N[C@@H](CCC(=O)O)C(=O)N[C@@H](CO)C(=O)N[C@@H](CC(=O)O)C(=O)N[C@H](C(=O)O)C(C)C)
not cleaved (plasmin [5]): no degradation observed in 45 minutes

Compound: YGRKkRRqRRrKLSSIESDV (YGRK[dK]RR[dQ]RR[dR]KLSSIESDV)
not cleaved (plasmin [6]): essentially 100% intact peptide after 30 minutes

Compound: YGrKKRrQRRrKLSSIESDV (YG[dR]KKR[dR]QRR[dR]KLSSIESDV)
not cleaved (plasmin [6]): essentially 100% intact peptide after 30 minutes

Compound: YGrKKRrQrRRkLSSIESDV (YG[dR]KKR[dR]Q[dR]RR[dK]LSSIESDV)
not cleaved (plasmin [6]): essentially 100% intact peptide after 30 minutes

not cleaved (plasmin [5]): no degradation observed in 45 minutes
Compound: rKKRrQrRRIESDV
